According to patent publication US20230348487A1, “2-AMINOPYRIMIDINE COMPOUND AND PHARMACEUTICAL COMPOSITION THEREOF AND APPLICATION THEREOF” (GUANGZHOU SALUSTIER BIOSCIENCES CO., LTD., priority 2021, published 2023):
Values joined by “and” are separate entries in the source; they are usually repeats but may differ in a detail not shown here. Equal values may be shown once. Read-outs that look alike come from different tables or passages of the source.

Key:
[1] = tested on: human T lymphoblastic lymphoma cell line Jurkat; test: CCK-8 in vitro proliferation inhibition; format: cell-based; settings: Homo sapiens, Jurkat, 72 hours, read-out: Inhibitory activity (IC50) on cell proliferation, JURKAT
Experimental: (§1) Cell lines: human chronic myeloid leukemia cell line K562, human acute myeloid leukemia cell line U937, human T lymphocyte leukemia cell line HuT78, and human T lymphoblastic lymphoma cell line Jurkat. Cells were purchased from the Chinese Academy of Sciences Stem Cell Bank or ATCC.
(§2) […] were cultured overnight and suspended cells were directly stimulated with drugs. […] Two repeats were set for each concentration, with a final volume of 200 μL. […] The absorbance values at 450 nm and 650 nm were measured using a microplate reader, and the increment Z (A450-A650) was derived. The inhibitory rate of drugs on cell growth was calculated by GraphPad Prism 8.0.0 through the following formula:
(§3) Inhibition rate (%)(ODcontrol−ODdosing)/ODcontrol×100%
(§4) The half inhibitory concentration (IC50) was calculated. Every experiment was repeated at least three times.

[2] = tested on: human chronic myeloid leukemia cell line K562; test: CCK-8 in vitro proliferation inhibition; format: cell-based; settings: read-out: Inhibitory activity (IC50) on cell proliferation, K562
Experimental: as §1, §2, §3, §4

[3] = tested on: human T lymphocyte leukemia cell line HuT78; test: CCK-8 in vitro proliferation inhibition; format: cell-based; settings: Homo sapiens, HuT78, 72 hours, read-out: Inhibitory activity (IC50) on cell proliferation, HUT78
Experimental: as §1, §2, §3, §4

[4] = tested on: human acute myeloid leukemia cell line U937; test: CCK-8 in vitro proliferation inhibition; format: cell-based; settings: read-out: Inhibitory activity (IC50) on cell proliferation, U937
Experimental: as §1, §2, §3, §4

JAK1 = JAK1 (Homo sapiens (Human), UniProt P23458); test: Z′-Lyte kinase inhibitory activity test; format: biochemical; settings: ATP concentration Km
Experimental: (§5) Test method: Firstly, test compounds were prepared into 10 mM stock solution with DMSO, and continuously diluted into 10 concentrations at a 3-fold gradient for later use. 5X reaction buffer was diluted with deionized water into 1×reaction buffer (50 mM HEPES pH 7.5, 0.01% Brij-35, 10 mM MgCl2, 1 mM EGTA), which was used to prepare a mixture of kinase and peptide substrate, as well as a phosphorylated peptide substrate solution. The kinase concentration was determined based on enzyme titration, and the final concentration of peptide substrate and phosphorylated peptide substrate was 2 μM. 5 μL of mixture substrate of kinase and peptide substrate was added to each well on the 384 well plate. Then 5 nL of the test compound (starting with a final concentration of 10 μM) was added with an Echo520 Sampler. […] An additional 100% phosphorylation well (5 μL phosphorylated peptide substrate solution), a 0% phosphorylated well (5 μL of a mixture of kinase and peptide substrate, without test compounds and ATP), and a 0% inhibitory well (5 μL of a mixture of kinase and peptide substrate and appropriate concentration of ATP) were set as control. Two repeats were set for each concentration. The above reaction system was incubated at 30° C. for 1.5 hours. […] 2.5 μL of the diluted mixture was added to each well and the system was incubated at 30° C. for another 1 hour. […] The substrate phosphorylation rate was obtained by calculating the ratio, and the activity of the kinase and the effect of the inhibitor on the kinase was further calculated. Every experiment was repeated at least three times.

JAK3 = JAK3 (Homo sapiens (Human), UniProt P52333); test: Z′-Lyte kinase inhibitory activity test; format: biochemical; settings: for JAK3 kinase inhibitory activity and selectivity (in words): summary of Table 3, activity maintained at ATP 1 mM
Experimental: as §5

JAK2 = JAK2 (Homo sapiens (Human), UniProt O60674); test: Z′-Lyte kinase inhibitory activity test; format: biochemical
Experimental: as §5

TYK2 = TYK2 (Homo sapiens (Human), UniProt P29597); test: Z′-Lyte kinase inhibitory activity test; format: biochemical; settings: ATP concentration Km
Experimental: as §5

Sequence of TYK2 (P29597 whole entry): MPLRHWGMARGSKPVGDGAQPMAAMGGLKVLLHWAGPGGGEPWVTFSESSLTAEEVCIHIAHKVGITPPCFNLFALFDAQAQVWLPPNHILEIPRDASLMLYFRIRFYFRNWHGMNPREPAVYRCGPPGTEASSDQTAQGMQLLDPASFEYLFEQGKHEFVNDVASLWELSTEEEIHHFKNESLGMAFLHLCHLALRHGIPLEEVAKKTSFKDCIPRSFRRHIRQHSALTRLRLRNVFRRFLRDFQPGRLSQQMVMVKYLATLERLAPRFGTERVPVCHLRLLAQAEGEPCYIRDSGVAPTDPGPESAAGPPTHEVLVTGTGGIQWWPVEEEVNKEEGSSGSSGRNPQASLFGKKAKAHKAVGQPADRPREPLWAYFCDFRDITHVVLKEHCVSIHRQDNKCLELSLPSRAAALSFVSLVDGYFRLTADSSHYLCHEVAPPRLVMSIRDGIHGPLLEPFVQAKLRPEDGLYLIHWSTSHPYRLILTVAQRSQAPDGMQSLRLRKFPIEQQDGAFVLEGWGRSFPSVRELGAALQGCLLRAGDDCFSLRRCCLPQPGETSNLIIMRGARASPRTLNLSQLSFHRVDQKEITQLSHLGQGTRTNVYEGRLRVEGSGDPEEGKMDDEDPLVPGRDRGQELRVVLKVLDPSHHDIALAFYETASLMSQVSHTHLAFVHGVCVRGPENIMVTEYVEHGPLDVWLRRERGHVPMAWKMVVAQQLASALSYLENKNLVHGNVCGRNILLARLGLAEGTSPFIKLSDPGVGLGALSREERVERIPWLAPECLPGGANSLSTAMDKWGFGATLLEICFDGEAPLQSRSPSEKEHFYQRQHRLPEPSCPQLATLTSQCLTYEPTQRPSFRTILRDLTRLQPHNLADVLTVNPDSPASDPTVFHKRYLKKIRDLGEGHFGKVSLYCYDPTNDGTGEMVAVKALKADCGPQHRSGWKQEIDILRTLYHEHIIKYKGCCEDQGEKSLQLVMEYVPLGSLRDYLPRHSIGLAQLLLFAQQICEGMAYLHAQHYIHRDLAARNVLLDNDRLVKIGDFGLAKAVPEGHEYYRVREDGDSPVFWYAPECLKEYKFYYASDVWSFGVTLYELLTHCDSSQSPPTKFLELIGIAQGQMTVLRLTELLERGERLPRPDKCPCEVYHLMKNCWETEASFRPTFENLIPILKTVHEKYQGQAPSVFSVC
Sequence of JAK2 (O60674 whole entry): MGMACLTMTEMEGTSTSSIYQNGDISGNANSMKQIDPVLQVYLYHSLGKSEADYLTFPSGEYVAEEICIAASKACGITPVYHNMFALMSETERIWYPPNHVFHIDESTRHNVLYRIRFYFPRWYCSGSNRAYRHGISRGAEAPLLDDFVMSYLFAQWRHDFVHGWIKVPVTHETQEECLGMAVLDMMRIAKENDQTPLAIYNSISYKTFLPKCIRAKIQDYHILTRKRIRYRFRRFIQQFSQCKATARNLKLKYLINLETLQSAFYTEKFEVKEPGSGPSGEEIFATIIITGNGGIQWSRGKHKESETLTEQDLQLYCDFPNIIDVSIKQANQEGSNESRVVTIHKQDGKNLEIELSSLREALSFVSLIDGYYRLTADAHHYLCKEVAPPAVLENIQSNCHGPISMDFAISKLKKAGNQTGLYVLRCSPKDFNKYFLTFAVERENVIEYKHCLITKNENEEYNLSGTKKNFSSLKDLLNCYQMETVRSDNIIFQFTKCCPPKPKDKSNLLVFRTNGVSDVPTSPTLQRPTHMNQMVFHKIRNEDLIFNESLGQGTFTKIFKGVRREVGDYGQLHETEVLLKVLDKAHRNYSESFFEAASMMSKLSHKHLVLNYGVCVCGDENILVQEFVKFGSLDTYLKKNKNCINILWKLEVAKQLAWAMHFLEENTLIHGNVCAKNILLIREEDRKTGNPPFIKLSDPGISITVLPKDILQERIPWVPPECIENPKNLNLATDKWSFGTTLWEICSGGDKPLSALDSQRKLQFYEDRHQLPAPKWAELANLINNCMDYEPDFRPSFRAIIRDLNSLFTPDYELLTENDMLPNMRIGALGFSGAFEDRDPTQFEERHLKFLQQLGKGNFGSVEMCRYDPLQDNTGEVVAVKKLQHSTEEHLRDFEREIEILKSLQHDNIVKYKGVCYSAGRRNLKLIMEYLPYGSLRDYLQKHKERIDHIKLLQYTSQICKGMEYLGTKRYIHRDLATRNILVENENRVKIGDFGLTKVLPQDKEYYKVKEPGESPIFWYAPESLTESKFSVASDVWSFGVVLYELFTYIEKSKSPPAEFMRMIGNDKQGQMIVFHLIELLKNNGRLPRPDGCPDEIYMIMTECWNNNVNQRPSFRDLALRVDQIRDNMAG
Sequence of JAK3 (P52333 whole entry): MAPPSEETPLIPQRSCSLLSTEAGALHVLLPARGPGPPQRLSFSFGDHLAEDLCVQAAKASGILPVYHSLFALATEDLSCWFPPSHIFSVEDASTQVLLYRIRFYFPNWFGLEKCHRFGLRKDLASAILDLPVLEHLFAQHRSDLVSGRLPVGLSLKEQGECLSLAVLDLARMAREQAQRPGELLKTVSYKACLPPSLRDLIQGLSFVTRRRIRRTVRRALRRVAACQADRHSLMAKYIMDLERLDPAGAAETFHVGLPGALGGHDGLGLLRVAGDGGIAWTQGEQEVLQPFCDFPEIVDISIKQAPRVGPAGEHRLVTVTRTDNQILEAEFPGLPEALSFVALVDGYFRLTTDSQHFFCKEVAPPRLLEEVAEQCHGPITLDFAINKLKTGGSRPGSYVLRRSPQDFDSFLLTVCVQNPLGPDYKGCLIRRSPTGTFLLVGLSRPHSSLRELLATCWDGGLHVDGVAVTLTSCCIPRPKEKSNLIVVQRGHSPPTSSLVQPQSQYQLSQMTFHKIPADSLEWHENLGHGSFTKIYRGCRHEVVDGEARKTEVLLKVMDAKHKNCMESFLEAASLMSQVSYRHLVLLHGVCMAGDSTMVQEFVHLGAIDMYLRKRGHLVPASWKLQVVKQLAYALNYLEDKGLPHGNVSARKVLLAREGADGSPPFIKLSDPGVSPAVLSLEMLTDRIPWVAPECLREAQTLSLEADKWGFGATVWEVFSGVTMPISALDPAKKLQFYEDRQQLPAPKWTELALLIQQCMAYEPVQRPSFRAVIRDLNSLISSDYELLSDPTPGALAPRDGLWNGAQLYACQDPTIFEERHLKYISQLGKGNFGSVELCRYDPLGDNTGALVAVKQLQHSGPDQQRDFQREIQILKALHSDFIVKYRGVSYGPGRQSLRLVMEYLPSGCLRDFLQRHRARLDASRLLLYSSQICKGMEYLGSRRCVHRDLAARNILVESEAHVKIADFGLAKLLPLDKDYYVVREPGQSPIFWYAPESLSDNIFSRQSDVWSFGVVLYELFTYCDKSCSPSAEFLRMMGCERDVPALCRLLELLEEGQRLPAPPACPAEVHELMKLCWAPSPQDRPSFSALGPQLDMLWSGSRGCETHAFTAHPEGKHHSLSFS
Sequence of JAK1 (P23458 whole entry): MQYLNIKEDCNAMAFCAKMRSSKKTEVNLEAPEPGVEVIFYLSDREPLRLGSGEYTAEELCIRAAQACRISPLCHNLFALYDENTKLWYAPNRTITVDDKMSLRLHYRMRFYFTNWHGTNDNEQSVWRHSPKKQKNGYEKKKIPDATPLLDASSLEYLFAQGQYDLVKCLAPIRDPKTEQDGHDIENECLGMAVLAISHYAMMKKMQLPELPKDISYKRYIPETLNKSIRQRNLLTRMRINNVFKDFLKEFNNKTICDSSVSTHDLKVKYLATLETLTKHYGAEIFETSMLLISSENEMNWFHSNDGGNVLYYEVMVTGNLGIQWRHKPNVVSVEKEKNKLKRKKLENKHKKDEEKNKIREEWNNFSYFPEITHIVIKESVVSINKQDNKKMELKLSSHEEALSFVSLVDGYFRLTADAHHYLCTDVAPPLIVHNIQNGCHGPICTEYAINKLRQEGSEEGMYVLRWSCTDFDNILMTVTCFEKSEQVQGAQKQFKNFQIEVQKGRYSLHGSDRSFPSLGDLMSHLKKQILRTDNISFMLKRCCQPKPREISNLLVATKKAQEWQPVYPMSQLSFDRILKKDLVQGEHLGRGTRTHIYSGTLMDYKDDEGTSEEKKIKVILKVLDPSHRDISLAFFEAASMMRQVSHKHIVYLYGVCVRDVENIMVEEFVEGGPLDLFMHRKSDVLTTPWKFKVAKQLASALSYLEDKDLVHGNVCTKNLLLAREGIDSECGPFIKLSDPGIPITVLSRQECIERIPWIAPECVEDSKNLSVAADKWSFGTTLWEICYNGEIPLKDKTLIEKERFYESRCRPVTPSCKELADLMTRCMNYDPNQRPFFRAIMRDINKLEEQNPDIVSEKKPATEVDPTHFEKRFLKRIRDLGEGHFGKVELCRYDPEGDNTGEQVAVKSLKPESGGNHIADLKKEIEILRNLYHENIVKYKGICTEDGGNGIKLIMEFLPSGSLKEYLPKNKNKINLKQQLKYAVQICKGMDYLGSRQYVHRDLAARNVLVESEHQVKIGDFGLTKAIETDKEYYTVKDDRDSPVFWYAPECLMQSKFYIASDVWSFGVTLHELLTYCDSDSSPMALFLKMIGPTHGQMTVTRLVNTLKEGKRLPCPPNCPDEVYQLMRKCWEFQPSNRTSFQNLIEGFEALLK

SMILES	IC50 ([4]; Homo sapiens, U-937, 72 hours)	IC50 (JAK3; ATP concentration Km)	IC50 (JAK1)	IC50 (TYK2)	IC50 (JAK2; ATP concentration Km)	also measured
C=CC(=O)Nc1cc(Nc2ncc(Cl)c(O[C@@H]3CO[C@H]4[C@@H]3OC[C@H]4O)n2)c(OC)cc1N1CCC(N2CCN(C)CC2)CC1 [LS 5-3]	5380 nM	0.133 µM				IC50 [1]: 8670 nM; IC50 ([2]; Homo sapiens, K562, 72 hours): 376 nM; IC50 [3]: 8080 nM; IC50 (JAK1; in μM): > 10 µM; IC50 (JAK2; ATP concentration Km, in μM): > 10 µM
C=CC(=O)Nc1cc(Nc2ncc(Cl)c(O[C@@H]3CO[C@H]4[C@@H]3OC[C@H]4F)n2)ccc1N(C)CCN(C)C [LS 6-88]			87.1 µM	930 nM		IC50 ([2]; 72 hours): 410 nM; IC50 ([4]; 72 hours): 50.3 nM; IC50 (JAK3): 0.00135 µM and 0.00153 µM; JAK3 kinase inhibitory activity and selectivity (in words) (JAK3): strong and selective JAK3 kinase inhibitory activity; IC50 (JAK2): 1.72 µM
C=CC(=O)Nc1cc(Nc2ncc(Cl)c(O[C@@H]3CO[C@H]4[C@@H]3OC[C@@H]4F)n2)ccc1N1CCC(N2CCN(C)CC2)CC1 [LS 6-59]			7.04 µM	435 nM		IC50 ([2]; 72 hours): 281 nM; IC50 ([4]; 72 hours): 129 nM; IC50 (JAK2): 1.08 µM
C=CC(=O)Nc1cc(Nc2ncc(Cl)c(O[C@@H]3CO[C@H]4[C@@H]3OCC4(F)F)n2)ccc1N(C)CCN(C)C [LS 6-105]			4.22 µM	272 nM		IC50 ([2]; 72 hours): 345 nM; IC50 ([4]; 72 hours): 33.8 nM; IC50 (JAK3): 0.00113 µM and 0.00132 µM; JAK3 kinase inhibitory activity and selectivity (in words) (JAK3): strong and selective JAK3 kinase inhibitory activity; IC50 (JAK2): 0.589 µM
C=CC(=O)Nc1cc(Nc2ncc(Cl)c(O[C@@H]3CO[C@H]4[C@@H]3OC[C@@H]4F)n2)ccc1N(C)CCN(C)C [LS 6-77]	40.7 nM	0.00128 µM	33.9 µM	921 nM	2.47 µM	IC50 ([2]; Homo sapiens, K562, 72 hours): 906 nM; IC50 (JAK3; ATP concentration 1 mM): 0.00155 µM; JAK3 kinase inhibitory activity and selectivity (in words) (JAK3): strong and selective JAK3 kinase inhibitory activity
COc1cc(N2CCC(N3CCN(C)CC3)CC2)ccc1Nc1ncc(Cl)c(O[C@H]2CO[C@H]3[C@@H]2OC[C@H]3O)n1 [LS 4-100]						IC50 (JAK3; ATP concentration Km, in μM): > 10 µM
CN1CCN(C2CCN(c3ccc(Nc4ncc(Cl)c(O[C@@H]5CO[C@H]6[C@@H]5OC[C@@H]6O)n4)cc3Cl)CC2)CC1 [LS 4-97]					0.406 µM	
CN1CCN(C2CCN(c3ccc(Nc4ncc(Cl)c(O[C@H]5CO[C@H]6[C@@H]5OC[C@H]6O)n4)cc3Cl)CC2)CC1 [LS 3-96]					8.16 µM	
N#CC1(c2ccc(Nc3ncc(Cl)c(O[C@@H]4CO[C@H]5[C@@H]4OC[C@H]5O)n3)cc2)CCCC1 [LS 5-58]		0.12 µM	0.161 µM		0.67 µM	
CN1CCN(C2CCN(c3ccc(Nc4ncc(Cl)c(O[C@@H]5CO[C@H]6[C@@H]5OC[C@H]6O)n4)c(Cl)c3)CC2)CC1 [LS 4-148]		6.47 µM				
C=CC(=O)Nc1cc(Nc2ncc(Cl)c(O[C@@H]3CO[C@H]4[C@@H]3OC[C@H]4OCC)n2)ccc1N(C)CCN(C)C [LS 7-13]	29.9 nM	0.0013 µM	8.6 µM	1660 nM	1.89 µM	IC50 (JAK3; ATP concentration 1 mM): 0.0019 µM; JAK3 kinase inhibitory activity and selectivity (in words) (JAK3): strong and selective JAK3 kinase inhibitory activity
C=CC(=O)Nc1cc(Nc2ncc(C)c(O[C@@H]3CO[C@H]4[C@@H]3OC[C@H]4O)n2)ccc1N1CCC(N2CCN(C)CC2)CC1 [LS 5-133, N-(5-((4-(((3R,3aR,6R, 6aR)-6-hydroxyhexahydrofurano[3,2-b]furan-3-yl)oxygen)-5-methylpyrimidin-2-yl)amino)-2-(4-(4-methylpiperazin-1-yl)piperidin-1-yl)phenyl) acrylamide]		0.00634 µM	0.685 µM	313 nM	0.417 µM	
C=CC(=O)Nc1cc(Nc2ncc(Cl)c(O[C@@H]3CO[C@H]4[C@@H]3OC[C@H]4OC)n2)ccc1N1CCOCC1 [LS 6-48]	403 nM	0.00387 µM	2.75 µM	637 nM	1.13 µM	IC50 ([2]; Homo sapiens, K562, 72 hours): 1550 nM; IC50 (JAK3; ATP concentration 1 mM): 0.0261 µM
C=CC(=O)Nc1cc(Nc2ncc(Cl)c(O[C@@H]3CO[C@H]4[C@@H]3OC[C@H]4OC)n2)ccc1N1CCN(C)[C@@H](C)C1 [LS 6-49]	79.4 nM	0.0017 µM	4.69 µM	1190 nM	1.1 µM	IC50 ([2]; Homo sapiens, K562, 72 hours): 371 nM; IC50 (JAK3; ATP concentration 1 mM): 0.00292 µM; JAK3 kinase inhibitory activity and selectivity (in words) (JAK3): strong and selective JAK3 kinase inhibitory activity
C=CC(=O)Nc1cc(Nc2ncc(Cl)c(O[C@@H]3CO[C@@H]4CCO[C@@H]43)n2)ccc1N(C)CCN(C)C [LS 6-121]			2.93 µM	278 nM		IC50 ([4]; 72 hours): 31.3 nM; IC50 (JAK3): 0.0014 µM and 0.0016 µM; JAK3 kinase inhibitory activity and selectivity (in words) (JAK3): strong and selective JAK3 kinase inhibitory activity; IC50 (JAK2): 1.06 µM
COc1cc(Nc2ncc(Cl)c(O[C@H]3CO[C@H]4[C@@H]3OC[C@H]4O)n2)ccc1N1CCN(C)CC1 [LS 4-106]		0.638 µM				
CN1CCN(C2CCN(c3c(Cl)cc(Nc4ncc(Cl)c(O[C@@H]5CO[C@H]6[C@@H]5OC[C@H]6O)n4)cc3Cl)CC2)CC1 [LS 5-16]		0.141 µM	0.354 µM		0.949 µM	
CN1CCN(c2ccc(Nc3ncc(Cl)c(O[C@@H]4CO[C@H]5[C@@H]4OC[C@H]5O)n3)cc2)CC1 [LS 4-144]		0.0848 µM				
C=CC(=O)Nc1cc(Nc2ncc(Cl)c(O[C@@H]3CO[C@H]4[C@@H]3OC[C@H]4OC(C)C)n2)ccc1N(C)CCN(C)C [LS 7-18]	44 nM	0.0015 µM		4420 nM	2.66 µM	IC50 (JAK1; in μM): > 10 µM; IC50 (JAK3; ATP concentration 1 mM): 0.0023 µM; JAK3 kinase inhibitory activity and selectivity (in words) (JAK3): strong and selective JAK3 kinase inhibitory activity
C=CC(=O)Nc1cc(Nc2ncc(Cl)c(O[C@@H]3CO[C@H]4[C@@H]3OC[C@H]4F)n2)ccc1N1CCN(CC)CC1 [LS 6-89]	171 nM	0.00426 µM	15.6 µM	805 nM	1.71 µM	IC50 ([2]; Homo sapiens, K562, 72 hours): 620 nM; IC50 (JAK3; ATP concentration 1 mM): 0.00654 µM
CN1CCN(c2ccc(Nc3ncc(Cl)c(O[C@@H]4CO[C@H]5[C@@H]4OC[C@H]5O)n3)cc2Cl)CC1 [LS 4-142]		0.0495 µM				
Cc1cc(Nc2ncc(Cl)c(O[C@@H]3CO[C@H]4[C@@H]3OC[C@H]4O)n2)cnc1N1CCC(N2CCN(C)CC2)CC1 [LS 4-150]		0.084 µM				
C=CC(=O)Nc1cc(Nc2ncc(Cl)c(O[C@@H]3CO[C@H]4[C@@H]3OC[C@@H]4F)n2)ccc1N1CCN(CC)CC1 [LS 6-78]	146 nM	0.00402 µM	12.6 µM	912 nM	1.67 µM	IC50 ([2]; Homo sapiens, K562, 72 hours): 525 nM; IC50 (JAK3; ATP concentration 1 mM): 0.00714 µM
CN1CCN(C2CCN(c3ccc(Nc4ncc(Cl)c(O[C@@H]5CO[C@H]6[C@@H]5OC[C@H]6O)n4)cc3Cl)CC2)CC1 [LS 4-104]					0.291 µM	IC50 [1]: 2050 nM; IC50 ([2]; Homo sapiens, K562, 72 hours): 542 nM; IC50 [3]: 2420 nM
CCN1CCN(Cc2ccc(Nc3ncc(Cl)c(O[C@@H]4CO[C@H]5[C@@H]4OC[C@H]5O)n3)nc2)CC1 [LS 5-54]		5.75 µM				IC50 (JAK1; in μM): > 10 µM; IC50 (JAK2; ATP concentration Km, in μM): > 10 µM
